Measured values taken from US20250144067A1, “PERSONALIZED STARVATION THERAPY FOR CANCER” (Faeth Therapeutics, Inc., priority 2021, published 2025).
Where a name gives a salt, the structure may show the parent alone.

How the values were obtained:
[1] = system: NCI-H292 lung cancer cells; test: FDA drug screening, complete media vs cholesterol-free media without statin (TABLE 1); type: cell-based, human
[2] = system: NCI-H292 lung cancer cells; test: FDA drug screening, complete media vs cholesterol-free media with simvastatin (TABLE 2); type: cell-based, human; settings: for Cholesterol-free media + simvastatin (0.04 μM) / Complete Media: NCI-H292 cells
[3] = Complete minus Cholesterol-free, >0 enhanced anti-cancer activity, about 0 neutral, <0 antagonist
[4] = NCI-H292 cells, cholesterol-free media without statin, FDA drug library screen
[5] = NCI-H292 cells, complete media, FDA drug library screen
[6] = FDA drug library screen, cholesterol-free media with simvastatin 0.04 μM
[7] = FDA drug library screen, complete media
[8] = complete media minus cholesterol-free media + simvastatin, >0 enhanced anti-cancer activity, about 0 neutral, <0 antagonist
[9] = complete vs cholesterol-free media, >0 enhanced anti-cancer activity, about 0 neutral, <0 antagonist
[10] = complete media vs cholesterol-free media + simvastatin (0.04 μM), >0 enhanced anti-cancer activity, about 0 neutral, <0 antagonist
[11] = complete vs cholesterol-free media, greater than 0 enhanced anti-cancer activity, about 0 neutral, below 0 antagonists
[12] = Complete minus Cholesterol-free, […]
[13] = NCI-H292 cells in complete media
[14] = FDA library drug in cholesterol-free media with simvastatin 0.04 μM
[15] = FDA library drug in complete media
[16] = complete media vs cholesterol-free media + simvastatin (0.04 μM), […]
[17] = NCI-H292 cells, cholesterol-free media without statin
[18] = drug in cholesterol-free media with simvastatin 0.04 μM
[19] = NCI-H292 cells, FDA drug library screen, cholesterol-free media without statin
[20] = NCI-H292 cells, FDA drug library screen, complete media
[21] = Complete minus Cholesterol-free, greater than 0 enhanced anti-cancer activity, about 0 neutral, below 0 antagonist
[22] = cholesterol-free media with simvastatin 0.04 μM, FDA drug library screen (TABLE 2)
[23] = complete media, FDA drug library screen (TABLE 2)
[24] = complete media minus cholesterol-free media + simvastatin (0.04 μM), >0 enhanced anti-cancer activity, about 0 neutral, <0 antagonist

Compound `Cn1c(Cn2ccc(C(F)(F)F)c(Oc3cc(Cl)cc(C#N)c3)c2=O)n[nH]c1=O` [Doravirine] has a Difference [1, 3] of 0.06, a Cholesterol-free [1, 4] of 0.8163 and a Complete [1, 5] of 0.8734. The “Cholesterol-free media + simvastatin (0.04 μM)” value [2, 6] was 1.425, the “Complete Media” value [2, 7] was 1.562 and the Difference [2, 8] was 0.14.

For `NC(=O)[C@@H]1CC[C@@H]2CN1C(=O)N2OS(=O)(=O)O` [Avibactam (sodium hydrate)], the Cholesterol-free [1, 4] was 0.6447, the Complete [1, 5] was 0.883 and the Difference [1, 9] was 0.24. The “Cholesterol-free media + simvastatin (0.04 μM)” value [2, 6] was 1.124, the “Complete Media” value [2, 7] was 1.029 and the Difference [2, 10] was −0.09.

In the case of `COc1cc2c(cc1OC)CC(=O)N(CCCN(C)C[C@H]1Cc3cc(OC)c(OC)cc31)CC2` [Ivabradine (hydrochloride)], the Difference [1, 11] is reported as −0.47, the “Cholesterol-free media + simvastatin (0.04 μM)” value [2, 6] is reported as 1.338 and the “Complete Media” value [2, 7] is reported as 1.217. The Difference [2, 10] was −0.12.

`Nc1ccn([C@@H]2O[C@H](CO)[C@@H](O)[C@@H]2O)c(=O)n1` [Cytarabine] gave a Difference [1, 3] of −0.05, a Cholesterol-free [1, 4] of 0.08949 and a Complete [1, 5] of 0.04199. For the same compound, the “Cholesterol-free media + simvastatin (0.04 μM)” value [2, 6] was 0.2698, the “Complete Media” value [2, 7] was 0.1951 and the Difference [2, 10] was −0.07.

For `CN1CCN2c3ccccc3Cc3ccccc3C2C1` (stereo not shown) [Mianserin (hydrochloride)], the Cholesterol-free [1, 4] was 1.049, the Difference [1, 9] was 0.13 and the “Cholesterol-free media + simvastatin (0.04 μM)” value [2, 6] was 1.121. For the same compound, the “Complete Media” value [2, 7] was 1.021 and the Difference [2, 10] was −0.10.

Gluconate (Calcium) was tested, and the Difference [1, 12] was −0.74, the Complete [1, 13] was 0.8786 and the “Cholesterol-free media + simvastatin (0.04 μM)” value [2, 14] was 1.134. For the same compound, the “Complete Media” value [2, 15] was 0.8004 and the Difference [2, 16] was −0.33.

`CC(C)(C)NCC(O)COc1ccccc1C1CCCC1` (single isomer, unassigned; (+)) [(+)-Penbutolol] gave a Cholesterol-free [1, 17] of 1.349, a Complete ([1]; NCI-H292 cells, complete media) of 1.014 and a Difference [1, 11] of −0.33. For the same compound, the “Cholesterol-free media + simvastatin (0.04 μM)” value [2, 18] was 1.153, the “Complete Media” value ([2]; drug in complete media) was 0.9518 and the Difference [2, 10] was −0.20.

`N[C@@H](Cc1ccccc1)C(=O)O` [L-Phenylalanine] showed a Difference [1, 3] of −0.24, a Cholesterol-free [1, 17] of 1.103 and a Complete ([1]; NCI-H292 cells, complete media) of 0.8607. For the same compound, the “Cholesterol-free media + simvastatin (0.04 μM)” value [2, 18] was 0.988, the “Complete Media” value ([2]; drug in complete media) was 0.7918 and the Difference [2, 10] was −0.20.

In the case of `CO[C@H]1/C=C/O[C@@]2(C)Oc3c(C)c(O)c4c(c3C2=O)C2=NC3(CCN(CC(C)C)CC3)NC2=C(NC(=O)/C(C)=C\C=C\[C@H](C)[C@H](O)[C@@H](C)[C@@H](O)[C@@H](C)[C@H](OC(C)=O)[C@@H]1C)C4=O` [Rifabutin], the Cholesterol-free [1, 4] is reported as 0.7322, the Complete [1, 5] is reported as 0.8211 and the Difference [1, 9] is reported as 0.09. For the same compound, the “Cholesterol-free media + simvastatin (0.04 μM)” value [2, 18] was 1.205, the “Complete Media” value ([2]; drug in complete media) was 0.9499 and the Difference [2, 10] was −0.26.

In the case of Ifenprodil (tartrate), the Difference [1, 3] is reported as 0.02, the Cholesterol-free [1, 4] is reported as 0.8921 and the Complete [1, 5] is reported as 0.9115. The “Cholesterol-free media + simvastatin (0.04 μM)” value [2, 6] was 0.4918 and the Difference [2, 8] was 0.57.

`c1ccc2c(c1)Nc1ccccc1S2` [Phenothiazine] showed a Difference [1, 12] of −0.11, a Cholesterol-free [1, 19] of 1.108 and a Complete [1, 20] of 1.002. The “Cholesterol-free media + simvastatin (0.04 μM)” value ([2]; cholesterol-free media with simvastatin 0.04 μM, […]) was 1.18, the “Complete Media” value ([2]; complete media, […]) was 1.261 and the Difference ([2]; complete media minus cholesterol-free media + simvastatin, […]) was 0.08.

In the case of `CN1C(C(=O)Nc2ccccn2)=C(O)c2ccccc2S1(=O)=O` [Piroxicam], the Difference ([1]; Complete minus Cholesterol-free, greater than 0 enhanced anti-cancer activity, about 0 neutral, below 0 antagonists) is reported as −0.71, the Cholesterol-free ([1]; NCI-H292 cells in cholesterol-free media without statin) is reported as 1.552 and the Complete [1, 13] is reported as 0.8427. For the same compound, the “Cholesterol-free media + simvastatin (0.04 μM)” value [2, 14] was 1.433, the “Complete Media” value [2, 15] was 1.008 and the Difference [2, 10] was −0.42.

Compound `CCOc1nc2cccc(C(=O)OC(C)OC(=O)OC3CCCCC3)c2n1Cc1ccc(-c2ccccc2-c2nnn[nH]2)cc1` (stereo not shown) [Candesartan Cilexetil] has a Difference [1, 21] of −0.16, a Cholesterol-free [1, 19] of 1.093 and a Complete [1, 20] of 0.9304. The “Cholesterol-free media + simvastatin (0.04 μM)” value [2, 18] was 1.18, the “Complete Media” value ([2]; drug in complete media) was 0.9738 and the Difference [2, 10] was −0.21.

Osimertinib mesylate gave a Difference [1, 12] of −0.14, a Cholesterol-free [1, 19] of 0.3436 and a Complete [1, 20] of 0.1992. The “Cholesterol-free media + simvastatin (0.04 μM)” value [2, 6] was 0.3874, the “Complete Media” value [2, 7] was 0.2672 and the Difference [2, 16] was −0.12.

Compound `CC/C(=C(\c1ccccc1)c1ccc(OCCN(C)C)cc1)c1ccccc1` [Tamoxifen] has a Difference [1, 3] of 0.05, a Cholesterol-free [1, 4] of 0.6611 and a Complete [1, 5] of 0.7069. The “Cholesterol-free media + simvastatin (0.04 μM)” value [2, 6] was 0.7526, the “Complete Media” value [2, 7] was 1.084 and the Difference [2, 8] was 0.33.

`Cc1c(C)c2c(c(C)c1O)CCC(C)(COc1ccc(CC3SC(=O)NC3=O)cc1)O2` (stereo not shown) [Troglitazone] was tested, and the Cholesterol-free [1, 4] was 0.7956, the Complete [1, 5] was 1.359 and the Difference [1, 9] was 0.56. The “Cholesterol-free media + simvastatin (0.04 μM)” value [2, 6] was 0.9725, the “Complete Media” value [2, 7] was 0.8929 and the Difference [2, 10] was −0.08.

In the case of `Nc1ncnc2c1ncn2[C@@H]1O[C@H](COP(=O)(O)OP(=O)(O)OP(=O)(O)O)[C@@H](O)[C@H]1O` [ATP], the Difference [1, 21] is reported as −0.10, the Cholesterol-free [1, 19] is reported as 1.57 and the Complete [1, 20] is reported as 1.466. For the same compound, the “Cholesterol-free media + simvastatin (0.04 μM)” value [2, 18] was 1.049, the “Complete Media” value ([2]; drug in complete media) was 0.8041 and the Difference [2, 10] was −0.24.

Compound `N#Cc1ccc2[nH]cc(CCCCN3CCN(c4ccc5oc(C(N)=O)cc5c4)CC3)c2c1` [Vilazodone] has a Cholesterol-free [1, 4] of 0.8843, a Complete [1, 5] of 1.054 and a Difference [1, 9] of 0.17. The “Cholesterol-free media + simvastatin (0.04 μM)” value ([2]; cholesterol-free media with simvastatin 0.04 μM, cell growth value in FDA drug screen) was 0.8049, the “Complete Media” value ([2]; complete media, cell growth value in FDA drug screen) was 0.9107 and the Difference [2, 8] was 0.11.

With Vincristine (sulfate) the Difference [1, 12] was 0.02, the Cholesterol-free [1, 4] was 0.04497 and the Complete [1, 5] was 0.06722. For the same compound, the “Cholesterol-free media + simvastatin (0.04 μM)” value [2, 22] was 0.1488, the “Complete Media” value [2, 23] was 0.1119 and the Difference ([2]; complete media minus cholesterol-free media + simvastatin (0.04 μM), […]) was −0.04.

Work on `CO/N=C(\C(=O)N[C@@H]1C(=O)N2C(C(=O)[O-])=C(COC(N)=O)CS[C@H]12)c1ccco1.[Na+]` [Cefuroxime (sodium)] yielded a Difference [1, 3] of −0.19, a Cholesterol-free [1, 17] of 1.146 and a Complete ([1]; NCI-H292 cells, complete media) of 0.9534. For the same compound, the “Cholesterol-free media + simvastatin (0.04 μM)” value [2, 6] was 1.129, the “Complete Media” value [2, 7] was 1.035 and the Difference [2, 10] was −0.09.

`C[C@H](NCc1ccc(OCc2cccc(F)c2)cc1)C(N)=O` [Safinamide] was tested, and the Difference [1, 21] was −0.13, the Cholesterol-free [1, 19] was 1.086 and the Complete [1, 20] was 0.9537. The “Cholesterol-free media + simvastatin (0.04 μM)” value [2, 22] was 1.059, the “Complete Media” value [2, 23] was 1.012 and the Difference [2, 24] was −0.05.

`COC(=O)c1ccc2c(c1)NC(=O)/C2=C(\Nc1ccc(N(C)C(=O)CN2CCN(C)CC2)cc1)c1ccccc1` [Nintedanib esylate] showed a Difference [1, 3] of 0.02, a Cholesterol-free [1, 4] of 0.5114 and a Complete [1, 5] of 0.5279. For the same compound, the “Cholesterol-free media + simvastatin (0.04 μM)” value [2, 22] was 0.7218, the “Complete Media” value [2, 23] was 0.6577 and the Difference [2, 24] was −0.06.

`CCCCCCCCCCCCCCCC(=O)OC1CCCn2c1nc(C)c(CCN1CCC(c3noc4cc(F)ccc34)CC1)c2=O` (stereo not shown) [Paliperidone palmitate] showed a Difference [1, 21] of −0.16, a Cholesterol-free [1, 19] of 1.234 and a Complete [1, 20] of 1.075. For the same compound, the “Cholesterol-free media + simvastatin (0.04 μM)” value [2, 14] was 1.193, the “Complete Media” value [2, 15] was 0.8268 and the Difference [2, 10] was −0.37.

Compound `O=C1[C@@H]2[C@H]3CC[C@H](C3)[C@@H]2C(=O)N1CCCCN1CCN(c2ncccn2)CC1` [Tandospirone] has a Difference [1, 3] of −0.26, a Cholesterol-free [1, 17] of 1.451 and a Complete ([1]; NCI-H292 cells, complete media) of 1.192. The “Cholesterol-free media + simvastatin (0.04 μM)” value [2, 22] was 0.8591, the “Complete Media” value [2, 23] was 0.8479 and the Difference [2, 24] was −0.01.
